From US7371780B2, “Use of calphostin C to treat drug-resistant tumor cells” (priority 2003, dated 2008)

How the values were obtained:
MCF-7TAX cells = experiment: Cytoplasmic shrinkage by hematoxylin/eosin staining, MCF-7TAX; assay type: cell-based, human
Description: For staining with hematoxylin and eosin, cells were grown in a six-well culture plate with each well containing a Snowcoat X-Tra™ microscope slide (Surgipath Laboratories, MB) immersed in 3 ml of H21 medium. When the cells reached 50% confluence, they were treated with 0-300 nM calphostin C, followed by a 2 hour exposure of the cultures to fluorescent light as described above. After light activation, the cells were placed in a 37° C. humidified incubator with 5% CO2 and incubated for an additional 22 hours. The cells were then stained with hematoxylin and eosin using a previously described procedure. Briefly, the media was removed from cell cultures and the cells that remained adhered to the slides were washed with PBS, fixed in formalin:acetone (1:2) for 2 min, and allowed to air dry for 10 min. After washing with distilled water, 250 μl of hematoxylin solution (BDH Chemicals, Toronto, ON) was placed on each slide and allowed to incubate with the cells for 5 min. The slides were then washed with distilled water, Scott's tap water (20 g MgSO4.7H2O, 1.5 g NaHCO3 in 1 L H2O), and a final wash with distilled water. The cells on the slides were then stained for 5 min in 250 μl of eosin solution (100 ml of 1% eosin, 10 ml of 1% phyloxine, 4 ml of glacial acetic acid, and 780 ml of 95% ethanol). The cells were then dehydrated by washing three times in 95% ethanol and twice in 100% ethanol. The small slide was then mounted on a standard microscope glass slide, and 10 randomly selected fields were viewed at 100× magnification and photographed. For each concentration of calphostin C, the total number of dead cells in each field was ascertained and expressed relative to the total number of cells in the field.

[1] = tested on: MES-SA human uterine sarcoma cells; experiment: Death and cytoplasmic vacuolization, MES-SA; assay type: cell-based; details: data not shown
MCF-7 cells = experiment: Microscopic cell morphology (bright field, AO/EB, PI), MCF-7; assay type: cell-based, human; details: 50 nM light-activated calphostin C
Description: For microscopic observation, cells were seeded onto standard glass coverslips in 10 cm tissue culture plates with 10 ml of H21 medium and grown for 2 days until 40-50% confluence was obtained. After treatment with paclitaxel, doxorubicin or calphostin C, the cells on the glass coverslips were washed twice with PBS (2.7 mM KCl, 1.0 mM KH2PO4, 137 mM NaCl, 10 mM Na2HPO4, pH 7.4) and stained with acridine orange/ethidium bromide (each at 4 μg/ml in PBS) for 10 min at 37° C.. The coverslips were then washed three times in PBS and mounted onto standard glass slides for morphological evaluation. For propidium iodide (PI) staining, the cells on coverslips were washed twice with PBS and fixed in methanol (cooled to −20° C.) for 20 min. Thirty μl of propidium iodide (PI) staining solution (100 μg/ml PI, 0.1% sodium citrate, 100 μg/ml RNase A and 0.3% Nonidet P-40) were then applied to the coverslips for 5 min. […] The cells were then examined using a Zeiss Axiovert 100 inverted fluorescence microscope. […] For each sample, the number of dead cells was determined by visualization after ethidium bromide staining, whereby only dead cells which have lost membrane integrity allow entry of cell-impermeable ethidium bromide into cells to complex with DNA and induce bright red fluorescence. […] The images were recorded and overlayed using Northern Eclipse software (Empix Imaging Inc., Mississauga, ON).

COc1c(C[C@@H](C)OC(=O)Oc2ccc(O)cc2)c2c3c(C[C@@H](C)OC(=O)c4ccccc4)c(OC)c(=O)c4c(O)cc(OC)c(c5c(OC)cc(O)c(c1=O)c52)c43 [calphostin C]
concentration required for complete cytoplasmic shrinkage (MCF-7TAX cells): 300 nM
percentage of cells exhibiting cytoplasmic shrinkage (MCF-7TAX cells; 25 nM calphostin C): remained unchanged
percentage of cells exhibiting cytoplasmic shrinkage (MCF-7TAX cells; 50 nM calphostin C): 23%
induction of death and cytoplasmic vacuolization [1]: induce both death and cytoplasmic vacuolization
percentage of cells showing cytoplasmic vacuoles (MCF-7 cells): Over 50%
